The source of these data is patent US20140205566A1, “CYCLIC NUCLEUOSIDE DERIVATIVES AND USES THEREOF” (NOVARTIS AG, priority 2012, published 2014).

Data set [1] is described as follows: Stability in liver microsomes. Type of data set: in vitro ADME. The settings on record: human, read-out: liver microsomes t1/2.
The nature of data set [2]: Liver S9 stability determination. It is filed as in vitro ADME. The conditions noted are these: human liver S9 fraction, 1 μM compound, 37° C., up to 120 mins, read-out: liver S9 t1/2. From the text:
The liver is the main organ of metabolism and contains a high concentration of drug metabolizing enzymes. Metabolic clearance, particularly hepatic, is one of the main determinants affecting systemic drug exposure following both oral and i.v. administration. To assess the ability of the compounds of the invention to reach a systemic circulation, the hepatic S9 fraction was chosen to test for stability of the compounds. Hepatic S9 fraction was obtained following centrifugation of homogenized liver tissue at 9,000 g. The hepatic S9 fraction is composed of both microsomal and cytosolic fractions and contains all the enzymes contained in microsomes plus additional phase I and phase II cytosolic enzymes.
Stock solutions of each tested compound (100 μM) were prepared in methanol by two subsequent 1:10 dilutions from 10 mM DMSO drug solutions, the final assay concentration was 1 μM. Frozen pooled liver S9 fraction was thawed from −20° C. and diluted in phosphate buffer (with and without NADPH) which was pre-warmed at 37° C. for 10 minutes. The reaction was initiated by addition of compound. Manual sample plates were incubated on a Thermo Max Q 2000 shaker placed in a temperature controlled Sartorius Certomat H hood set at 37° C. Sequential samples were removed at designated timepoints (0, 5, 15, 30, 60 and 120 mins) and quenched with 4 volumes of ice cold acetonitrile (containing internal standard, diazepam), centrifuged and supernatants reconstituted in water (acetonitrile:water, 50:50% v/v). Samples were then analyzed by LCMS/MS or LC-UV to assess parent depletion. In vitro half-life (t1/2) is calculated based on the rate of disappearance of compound from the reaction mixture at incubation timepoints up to 2 hours.

Data set [3] can be described thus: CCK8 cytotoxicity assay in THP-1 cells. Type of data set: cell-based. The settings on record: human, CCK-8. As to the method:
4 day cytotoxicity assay using THP-1 cells: THP-1 cells grown in suspension were counted and diluted to 8×10^4 cells/ml in RPMI-1640 media supplemented with 10% fetal bovine serum (FBS) and 1% penicillin/streptomycin. 25 ul of the THP-1 containing media consisting of 2000 cells were dispensed in 384-well tissue culture plate and pre-incubated at room temperature for 30 minutes, followed by 37° C., 5% CO2 overnight in the humidified incubator. On the next day, serial-diluted compound plates were prepared and 125 nl of compounds at various concentrations were then dispensed into the tissue culture well (200× dilution). The plates were then transferred to 37° C., 5% CO2 humidified incubator for additional 96 hours. Cytotoxicity was measured by CCK-8 assay. Briefly, CCK-8 was thawed on bench top and diluted 2.5× with the growth media. 35 ul of the pre-diluted CCK-8 was then introduced into each well and the plates were then further incubated in 37° C., 5% CO2 humidified incubator for 3 hours. The absorbance was read by Envision at 450 nm. Dose response curves were calculated as in the previous section (n=2). The CC50 is estimated as the concentration of the compound which will inhibit 50% of the signal. A positive control (puromycin) was used to ensure the quality of the data.

Data set [4] can be described thus: CCK8 cytotoxicity assay in HepG2 cells. The settings on record: human, CCK-8. Type of data set: cell-based. As to the method: HepG2 cells were trypsinized, washed, counted and diluted to 1.6×10^4 cells/ml in DMEM-W/O Glucose, supplemented with 10% Fetal bovine serum (FBS), 1% Penicillin/Streptomycin, 2 mM HEPES, 1 mM Sodium Pyruvate, 10 mM Galactose & 2 mM Glutamine. 25 μl of the media containing 400 cells per well were dispensed in clear 384-well tissue culture plate and incubated at room temperature for 30 minutes. The plate was then transferred and placed at 37° C., 5% CO2 humidified incubator overnight. On the next day, serial-diluted compound plates were prepared and 125 nl of compounds at various concentrations were then dispensed into the tissue culture well (200× dilution). The plates were then transferred to 37° C., 5% CO2 humidified incubator for additional 96 hours. Cytotoxicity was measured by CCK-8 assay. Briefly, CCK-8 was thawed on bench top and diluted 2.5× with the growth media. 35 ul of the pre-diluted CCK-8 was then introduced into each well and the plates were then further incubated in 37° C., 5% CO2 humidified incubator for 3 hours. The absorbance was read by Envision at 450 nm. Dose response curves were calculated as in the previous section. The CC50 is estimated as the concentration of the compound which will inhibit 50% of the signal. A positive control (puromycin) was used to ensure the quality of the data.

Data set [5] relates to dengue virus. The data set is described as follows: Dengue EC50 determination: PBMC infected with virus/humanized 4G2 antibody complex, plaque reduction assay using BHK cells. It is filed as cell-based. The settings on record: M.O.I of 1, 48 hours, plaque reduction in BHK cells. As to the method:
Cryopreserved PBMC (Peripheral Blood Mononuclear Cell) cells were purchased from AllCells, LLC in USA. The cells were then thawed according to manufacturer's instructions and re-suspended in RPMI medium supplemented with 1% penicillin/streptomycin solution and 10% Fetal Calf serum. The cells were then counted and viability checked (viability should be at least 80%). After centrifuging and removing the media, the cells were diluted to 1×10^7 cells/mL in RPMI medium supplemented with 1% penicillin/streptomycin. 50 μl of the cells were then dispensed into 96-well tissue culture plate resulting in 5×10^5 cells/well. Next, virus with humanized 4G2 mixture was prepared for infection. Briefly, virus (2×10^7 pfu/ml) was mixed with humanized 4G2 antibody with the final antibody concentration of 0.38 μg/ml and incubated for 30 minutes at 4° C. to assist virus/antibody complex formation. The virus-antibody complex was then added to the PBMC at multiplicity of infection (M.O.I) of 1. The mixture of cells, virus and antibody was then further incubated in the plates at 37° C. for an hour in the humidified incubator for virus attachment and infection to take place. Serial diluted compounds were then added to the final media volume of 200 μl with 2% Fetal Calf Serum (final PBMC concentration would be 2.5×10^6 cells/mL). The plates were then incubated at 37° C., 5% CO2 for another 48 hours. The extent of the infection and compound inhibition was measured by plaque reduction assay using BHK cells [RD-2004-80036]. Briefly, supernatants of BHK cells grown in 24-well tissue culture (seeded at 200,000 cells/well the night before) were removed and subjected to 200 μl of diluted supernatants derived from PBMC infection containing serial diluted compounds. After incubating it for 37° C. for 1 hour in the incubator, the supernatants were removed and BHK cells overlaid with RPMI media containing 0.8% methyl-cellulose, 0.5% DMSO, 0.05% sodium bicarbonate, 25 mM HEPES, 2% fetal bovine serum and 1% penicillin/streptomycin solution. After additional 4 days of incubation at 37° C. incubator, the monolayer of BHK cells were fixed with 4% paraformaldehyde, stained with crystal violet and plaques counted. The dose response (n=2) is calculated by Prism from Graphpad software using a mathematical curve fitting analysis called nonlinear regression with four independent parameters. Briefly, the software generates the best fit curve using the formula F(x)=((A−D)/(1+((x/C)̂B)))+D. In this formula, x represents the concentration of the compound, A is the minimum value, B represents the steepness of the curve (sometimes known as Hill slope), C is the inflection point and D is the maximum value. EC50 was estimated as the concentration of the compound which will inhibit 50% of the plaque formation. A positive control (7-deaza-2′-C-acetylene-adenosine) was used to ensure the quality of the data.

A short description of data set [6]: Bulk-state stability and thermal conversion of crystalline forms. The conditions noted are these: for chemical and physical stability in bulk state: one week when stored at 50° C., 50° C./75% RH and 80° C. Type of data set: physicochemical.
A short description of data set [7]: Solubility of crystalline Form I and Form II in various media. Type of data set: physicochemical.
Data set [8] can be described thus: Slurry competition studies of crystalline forms in 2-propanol. Type of data set: physicochemical. The conditions noted are these: 2-propanol at room temperature.
[9] abbreviates: Fasted state simulated intestinal fluid [pH 6.5].
[10] abbreviates: Fed state simulated intestinal fluid [pH 5.8].

pEC50: −log10 of the molar value. Values after ≈ are worked out from the molar mass of the structure shown. Where two headings read alike, the source gives them in different places.

Turning to `COc1nc(N)nc2c1ncn2[C@@H]1O[C@H](CO[P@@](=O)(N[C@@H](C)C(=O)OC(C)C)Oc2ccccc2)[C@@H](O)[C@@]1(C)F` [Comparative Example 4, (S)-isopropyl 2-(((S)-(((2R,3R,4R,5R)-5-(2-amino-6-methoxy-9H-purin-9-yl)-4-fluoro-3-hydroxy-4-methyltetrahydrofuran-2-yl)methoxy) (phenoxy)phosphoryl)amino)propanoate, reference compound], the half-life in data set [1] turned out to be 6 min. Further, in data set [2], the half-life at 1 μM was determined as 18 min.

As for `CCOc1nc(N)nc2c1ncn2[C@@H]1O[C@@H]2CO[P@](=O)(NCC(=O)OC(C)C)O[C@H]2[C@@]1(C)F` [Example 8, isopropyl 2-(((2R,4aR,6R,7R,7aR)-6-(2-amino-6-ethoxy-9H-purin-9-yl)-7-fluoro-7-methyl-2-oxidotetrahydro-4H-furo[3,2-d][1,3,2]dioxaphosphinin-2-yl)amino)acetate], the CC50 at 96 h in data set [3] and in data set [4] was over 50 µM throughout. For the same compound, the half-life at 1 μM in data set [2] (pooled liver S9 fraction) was 57.5 min. For the same compound, in data set [5], the pEC50 is 6.48.

As for `CCOC(=O)[C@@H](N[P@]1(=O)OC[C@H]2O[C@@H](n3cnc4c(OCC)nc(N)nc43)[C@](C)(F)[C@@H]2O1)C(C)C` [Example 11, (S)-ethyl 2-(((2S,4aR,6R,7R,7aR)-6-(2-amino-6-ethoxy-9H-purin-9-yl)-7-fluoro-7-methyl-2-oxidotetrahydro-4H-furo[3,2-d][1,3,2]dioxaphosphinin-2-yl)amino)-3-methylbutanoate], the cytotoxic concentration (CC50) at 96 h in data set [3] and in data set [4] was over 50 µM in each case. For the same compound, the half-life at 1 μM in data set [2] (pooled liver S9 fraction) was 82 min. Besides, the negative logarithm of the EC50 (pEC50) in data set [5] was 6.64.

In the case of `CCOC(=O)[C@H](C)N[P@@]1(=O)OC[C@H]2O[C@@H](n3cnc4c(OCC)nc(N)nc43)[C@](C)(F)[C@@H]2O1` [Form I, (S)-ethyl 2-(((2R,4aR,6R,7R,7aR)-6-(2-amino-6-ethoxy-9H-purin-9-yl)-7-fluoro-7-methyl-2-oxidotetrahydro-4H-furo[3,2-d][1,3,2]dioxaphosphinin-2-yl)amino)propanoate], the “chemical and physical stability in bulk state” value in data set [6] was “chemically and physically stable”. Moreover, the Solubility was 0.632 [6.36] mg/ml in data set [7] (setting [9]); 0.665 [5.80] mg/ml in data set [7] (setting [10]); 0.681 [2.11] mg/ml in data set [7] (Simulated gastric fluid [pH 2]); 0.799 [3.82] mg/ml in data set [7] (Water); 1.249 [1.39] mg/ml in data set [7] (pH 1 (0.1N HCl)); 0.816 [3.04] mg/ml in data set [7] (pH 3 citrate buffer). Also, the Solubility is 0.687 [4.67] mg/ml in data set [7] (pH 4.65 acetate buffer) and 0.794 [6.70] mg/ml in data set [7] (pH 6.8 phosphate buffer).

In the case of `CCOC(=O)[C@H](C)N[P@@]1(=O)OC[C@H]2O[C@@H](n3cnc4c(OCC)nc(N)nc43)[C@](C)(F)[C@@H]2O1` [Form II, (S)-ethyl 2-(((2R,4aR,6R,7R,7aR)-6-(2-amino-6-ethoxy-9H-purin-9-yl)-7-fluoro-7-methyl-2-oxidotetrahydro-4H-furo[3,2-d][1,3,2]dioxaphosphinin-2-yl)amino)propanoate], the “chemical and physical stability in bulk state” value in data set [6] was “chemically and physically stable”. Moreover, the Solubility in data set [7] (setting [9]) is 0.0888 mg/mL (≈ 182 µM); in data set [7] (setting [10]), 0.0995 mg/mL (≈ 204 µM); in data set [7] (Simulated gastric fluid [pH 2]), 0.150 mg/mL (≈ 307 µM); in data set [7] (Water), 0.0676 mg/mL (≈ 138 µM); in data set [7] (pH 1 (0.1N HCl)) it was 0.246 mg/mL (≈ 504 µM); in data set [7] (pH 3 citrate buffer), 0.0740 mg/mL (≈ 152 µM). The Solubility in data set [7] (pH 4.65 acetate buffer) came out at 0.0557 mg/mL (≈ 114 µM); in data set [7] (pH 6.8 phosphate buffer), 0.0551 mg/mL (≈ 113 µM). Also, the “relative thermodynamic stability (slurry competition)” value in data set [8] is “thermodynamically more stable than Form I and III”.

`CCOC(=O)[C@H](C)N[P@@]1(=O)OC[C@H]2O[C@@H](n3cnc4c(OCC)nc(N)nc43)[C@](C)(F)[C@@H]2O1` [Form III, (S)-ethyl 2-(((2R,4aR,6R,7R,7aR)-6-(2-amino-6-ethoxy-9H-purin-9-yl)-7-fluoro-7-methyl-2-oxidotetrahydro-4H-furo[3,2-d][1,3,2]dioxaphosphinin-2-yl)amino)propanoate]: in data set [6] (heated at approximate 142° C.), the “form conversion on heating” value was “converts to Form II crystalline form”.
